{"source": "paper PMC8136874", "about": "“The entry reaction of the plant shikimate pathway is subjected to highly complex metabolite-mediated regulation” (The Plant Cell, 2021)", "key": {"AthDHS3": {"target": "AthDHS3 (Arabidopsis thaliana, UniProt Q9SK84)", "sequence (Q9SK84 entry or part of it)": "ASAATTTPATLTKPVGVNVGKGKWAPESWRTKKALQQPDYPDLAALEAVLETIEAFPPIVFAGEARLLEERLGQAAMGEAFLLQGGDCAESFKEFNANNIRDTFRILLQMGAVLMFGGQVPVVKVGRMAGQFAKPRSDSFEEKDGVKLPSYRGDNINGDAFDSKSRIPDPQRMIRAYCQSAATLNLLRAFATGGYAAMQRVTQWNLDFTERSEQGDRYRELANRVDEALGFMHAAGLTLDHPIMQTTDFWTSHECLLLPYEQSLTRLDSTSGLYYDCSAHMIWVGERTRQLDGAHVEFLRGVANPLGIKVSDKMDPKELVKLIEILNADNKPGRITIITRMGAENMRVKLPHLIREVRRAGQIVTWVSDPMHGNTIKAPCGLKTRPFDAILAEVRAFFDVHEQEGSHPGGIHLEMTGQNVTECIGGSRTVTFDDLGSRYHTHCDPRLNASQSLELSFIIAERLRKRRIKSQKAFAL", "assay": "DHS enzymatic activity assay with recombinant AthDHS3", "format": "biochemical", "conditions": "1 mM effector", "protocol": "(§1) Unless otherwise noted, DHS enzymatic activity was monitored as previously described ([Liu et al., 2008]), with several optimizations for high-throughput assays with eight-strip PCR tubes and a thermal cycler. The enzyme solution (7.7 µL) containing 50 mM HEPES (pH 7.4) was preincubated with an effector molecule(s) at room temperature for 10 min. For assays using recombinant protein and enzyme fraction isolated from plant leaves, 0.01–0.05 µg and approximately 50 µg of proteins were used, respectively. After adding 0.5 µL of 0.1 M DTT, the samples were further incubated at room temperature for 15 min. […] The enzyme reaction was started by adding 6.8 µL of the substrate solution, then incubated at 37°C for 20 min, and terminated by adding 30 µL of 0.6 M trichloroacetic acid. After brief centrifugation, 5 µL of 200 mM NaIO4 (sodium meta-periodate) in 9 N H3PO4 was added to oxidize the enzymatic product and incubate at 25°C for 20 min. To stop the oxidation reaction, 20 µL of 0.75 M NaAsO2 (sodium arsenite), which was dissolved in 0.5 M Na2SO4 and 0.05 M H2SO4, was immediately mixed. After 5 min of incubation at room temperature, one-third of the sample solution was transferred to a new tube to be mixed with 50 µL of 40 mM thiobarbituric acid and incubated at 99°C for 15 min in a thermal cycler. Developed pink chromophore was extracted by putting the final solutions with 600 µL of cyclohexanone in eight-strip solvent-resistant plastic tubes, mixing vigorously and centrifuging them at 4,500 × g for 3 min to separate water- and cyclohexanone-based layers. The absorbance of the pink supernatant was read at 549 nm with the microplate reader (Infinite 200 PRO, TECAN, Männedorf, Switzerland) to calculate DAHP production with the molar extinction coefficient at 549 nm (ε = 549 nm) of 4.5 × 10^4/M/cm. Reaction mixtures with boiled enzyme or without any substrates were run in parallel and used as negative controls to estimate the background signal for recombinant enzymes or enzymatic fraction from plant tissues, respectively.\n(§2) For determination of kinetic parameters, the data of enzymatic activities measured in the presence of various concentration of substrates were calculated with the Michaelis–Menten equation in Graphpad Prism 6 (GraphPad Software, San Diego, CA, USA)."}, "[1]": {"test_system": "DHS activity from mung bean (Vigna radiata) seedlings", "parameters": "method as in Rubin and Jensen, 1985", "conditions": "ref Rubin and Jensen, 1985; cited from earlier work"}, "[2]": {"test_system": "DHS activity from spinach (Spinacia oleracea) leaves", "parameters": "method as in Doong et al., 1993", "conditions": "ref Doong et al., 1993; cited from earlier work"}, "AthDHS2": {"target": "T1, AthDHS2 (Arabidopsis thaliana, UniProt Q00218)", "T1 construct": "AthDHS2; residues 34–507; hexa-histidine; made in house; host or cells: E. coli Rosetta2 (DE3), pET28a", "T1 sequence (Q00218 34-507)": "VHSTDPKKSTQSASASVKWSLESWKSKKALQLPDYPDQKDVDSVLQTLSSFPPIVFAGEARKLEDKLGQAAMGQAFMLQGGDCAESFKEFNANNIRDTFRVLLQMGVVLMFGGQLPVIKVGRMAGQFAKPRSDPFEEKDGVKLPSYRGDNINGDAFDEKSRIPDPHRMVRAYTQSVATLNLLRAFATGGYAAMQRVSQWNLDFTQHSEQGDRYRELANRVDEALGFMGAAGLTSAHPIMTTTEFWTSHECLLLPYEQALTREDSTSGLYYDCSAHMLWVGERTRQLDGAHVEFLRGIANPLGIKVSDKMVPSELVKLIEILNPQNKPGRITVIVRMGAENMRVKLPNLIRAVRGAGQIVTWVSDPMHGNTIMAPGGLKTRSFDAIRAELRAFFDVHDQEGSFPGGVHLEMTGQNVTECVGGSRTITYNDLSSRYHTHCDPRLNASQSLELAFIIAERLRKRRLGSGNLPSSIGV", "assay": "DHS enzymatic activity assay with recombinant AthDHS2", "format": "biochemical", "conditions": "1 mM effector"}, "AthDHS1": {"target": "T2, AthDHS1 (Arabidopsis thaliana, UniProt P29976)", "T2 construct": "AthDHS1; residues 49–525; hexa-histidine; made in house; host or cells: E. coli Rosetta2 (DE3), pET28a", "T2 sequence (P29976 49-525)": "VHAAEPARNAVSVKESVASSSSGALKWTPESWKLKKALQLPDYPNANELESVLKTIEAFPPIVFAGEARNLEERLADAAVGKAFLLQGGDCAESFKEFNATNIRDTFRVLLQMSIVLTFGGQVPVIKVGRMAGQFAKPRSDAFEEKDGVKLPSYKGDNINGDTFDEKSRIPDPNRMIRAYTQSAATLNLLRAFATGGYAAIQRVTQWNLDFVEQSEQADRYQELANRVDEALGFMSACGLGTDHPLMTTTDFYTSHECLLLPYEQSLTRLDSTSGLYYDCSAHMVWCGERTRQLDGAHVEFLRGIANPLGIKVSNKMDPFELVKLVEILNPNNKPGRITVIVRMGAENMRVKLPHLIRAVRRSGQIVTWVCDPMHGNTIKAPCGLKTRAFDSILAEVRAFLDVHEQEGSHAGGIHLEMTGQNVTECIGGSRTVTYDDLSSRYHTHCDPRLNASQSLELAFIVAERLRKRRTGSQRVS", "assay": "DHS enzymatic activity assay with recombinant AthDHS1", "format": "biochemical", "conditions": "1 mM effector", "protocol": "as §1, §2"}}, "data": [{"smiles": "N[C@@H](CC1(C(=O)O)C=CC(O)C=C1)C(=O)O", "note": "(some centres unmarked) [arogenate]", "values": [{"measurement": "effect on AthDHS3 activity (in words)", "setting": "AthDHS3", "value": "did not significantly affect"}, {"measurement": "concentration beyond which DHS activity is inhibited", "setting": "[1]", "value": "> 0.4", "unit": "mM"}, {"measurement": "concentration beyond which DHS activity is inhibited", "setting": "[2]", "value": "> 1", "unit": "mM"}, {"measurement": "inhibition of AthDHS2 activity", "setting": "AthDHS2", "value": "~75", "unit": "%"}, {"measurement": "effect on AthDHS1 activity (in words)", "setting": "AthDHS1", "value": "did not significantly affect"}]}]}
